Target: T1, telomerase enzyme (Homo sapiens, UniProt O14746)
T1 construct: telomerase enzyme diluted in a buffer
Test: Flash Plate-based telomerase activity assay
Format: biochemical
Details: telomerase inhibition; two hours of incubation at 37°; Flash Plate readout, Sigma Plot fit
Experimental: The telomerase activity of compounds of the invention have been evaluated using a Flash Plate-based assay.
Briefly the assay mixture is constituted of: • telomerase enzyme diluted in a buffer, the composition of which has been selected to maintain the enzyme activity stable along the duration of the assay. • dNTPs, deoxynucleotides 5′-triphosphate. • biotinylated oligo as primer. • increasing concentrations of test compounds/positive control.
After two hours of incubation at 37° degrees the telomeric repeats added are evaluated by hybridization in solution with a 3′-labeled short oligonucleotide probe.
The extent of hybridization is then quantitated by transferring the reaction mixture in a streptavidin-coated flash plate, where the binding between biotin and streptavidin occurs.
The telomerase activity is proportional to the radioactivity measured and the inhibitory activity of the compounds is evaluated as IC50 using the Sigma Plot fit program.
With the above-described method IC50 values of the compounds of the present invention were determined.

T1 sequence (O14746 whole entry): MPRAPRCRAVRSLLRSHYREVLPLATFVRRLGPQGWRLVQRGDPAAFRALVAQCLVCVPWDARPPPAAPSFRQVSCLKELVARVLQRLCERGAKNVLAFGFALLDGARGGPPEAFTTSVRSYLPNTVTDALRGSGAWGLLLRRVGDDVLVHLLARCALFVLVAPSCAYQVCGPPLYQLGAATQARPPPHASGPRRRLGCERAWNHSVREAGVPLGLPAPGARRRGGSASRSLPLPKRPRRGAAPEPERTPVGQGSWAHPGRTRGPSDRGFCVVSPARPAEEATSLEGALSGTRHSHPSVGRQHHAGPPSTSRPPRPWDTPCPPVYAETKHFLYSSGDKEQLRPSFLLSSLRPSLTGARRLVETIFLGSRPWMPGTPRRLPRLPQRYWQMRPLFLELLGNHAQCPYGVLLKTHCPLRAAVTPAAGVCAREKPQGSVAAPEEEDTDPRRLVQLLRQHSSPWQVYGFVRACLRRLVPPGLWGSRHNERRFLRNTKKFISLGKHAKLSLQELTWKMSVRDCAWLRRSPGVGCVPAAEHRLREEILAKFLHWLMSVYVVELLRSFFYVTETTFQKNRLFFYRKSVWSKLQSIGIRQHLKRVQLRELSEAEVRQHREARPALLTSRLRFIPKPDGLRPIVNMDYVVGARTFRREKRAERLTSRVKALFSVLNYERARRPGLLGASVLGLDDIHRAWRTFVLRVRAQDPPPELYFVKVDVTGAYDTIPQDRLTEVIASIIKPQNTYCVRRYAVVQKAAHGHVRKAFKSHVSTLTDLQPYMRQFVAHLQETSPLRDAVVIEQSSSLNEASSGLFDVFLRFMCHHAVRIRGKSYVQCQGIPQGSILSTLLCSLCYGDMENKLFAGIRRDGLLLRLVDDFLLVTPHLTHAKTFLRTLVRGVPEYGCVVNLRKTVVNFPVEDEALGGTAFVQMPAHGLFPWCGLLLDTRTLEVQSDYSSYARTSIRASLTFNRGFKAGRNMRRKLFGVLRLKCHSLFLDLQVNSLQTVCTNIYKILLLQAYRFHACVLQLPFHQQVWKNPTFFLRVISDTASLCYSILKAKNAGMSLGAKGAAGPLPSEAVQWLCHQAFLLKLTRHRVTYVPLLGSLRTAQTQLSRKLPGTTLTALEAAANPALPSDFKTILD

| IC50 [µM] | SMILES |
| --- | --- |
| 6.1 | Cc1nc(N2CCN(c3ccc(F)cc3)CC2)nc2c1ccc(=O)n2-c1ccc(C(=O)NCc2ccccc2)cc1 [Compound 20, N-benzyl-4-(2-[4-(4-fluorophenyl)-1-piperazinyl]-4-methyl-7-oxopyrido[2,3-d]pyrimidin-8(7H)-yl)benzamide] |
| 21.8 | Cc1nc(N2CCN(c3ccc(F)cc3)CC2)nc2c1ccc(=O)n2-c1ccc(C(=O)NCc2ccco2)cc1 [Compound 21, 4-(2-[4-(4-fluorophenyl)-1-piperazinyl]-4-methyl-7-oxopyrido[2,3-d]pyrimidin-8(7H)-yl)-N-(2-furylmethyl)benzamide] |
| 3.8 | Cc1nc(N2CCN(c3ccccn3)CC2)nc2c1ccc(=O)n2-c1ccc(C(=O)NCc2ccco2)cc1 [Compound 24, N-(2-furylmethyl)-4-(4-methyl-7-oxo-2-[4-(2-pyridinyl)-1-piperazinyl]pyrido[2,3-d]pyrimidin-8(7H)-yl)benzamide] |
| 1.7 | COc1ccc(CNC(=O)c2ccc(-n3c(=O)ccc4c(C)nc(N5CCN(c6ccccn6)CC5)nc43)cc2)cc1OC [Compound 25, N-(3,4-dimethoxybenzyl)-4-(4-methyl-7-oxo-2-[4-(2-pyridinyl)-1-piperazinyl]pyrido[2,3-d]pyrimidin-8(7H)-yl)benzamide] |
| 3.9 | Cc1nc(N2CCN(c3ncccn3)CC2)nc2c1ccc(=O)n2-c1ccc(C(=O)NCc2ccccc2)cc1 [Compound 27, N-benzyl-4-(4-methyl-7-oxo-2-[4-(2-pyrimidinyl)-1-piperazinyl]pyrido[2,3-d]pyrimidin-8(7H)-yl)benzamide] |
| 16.6 | Cc1nc(N2CCN(c3ncccn3)CC2)nc2c1ccc(=O)n2-c1ccc(C(=O)NCc2ccco2)cc1 [Compound 28, N-(2-furylmethyl)-4-(4-methyl-7-oxo-2-[4-(2-pyrimidinyl)-1-piperazinyl]pyrido[2,3-d]pyrimidin-8(7H)-yl)benzamide] |
| 9.4 | Cc1nc(N2CCN(c3ncccn3)CC2)nc2c1ccc(=O)n2-c1ccc(C(=O)NCc2cccnc2)cc1 [Compound 30, 4-(4-methyl-7-oxo-2-[4-(2-pyrimidinyl)-1-piperazinyl]pyrido[2,3-d]pyrimidin-8(7H)-yl)-N-(3-pyridinylmethyl)benzamide] |
| 9.4 | Cc1nc(N2CCN(c3ncccn3)CC2)nc2c1ccc(=O)n2-c1ccc(C(=O)NCc2ccc(F)cc2F)cc1 [Compound 31, N-(2,4-difluorobenzyl)-4-(4-methyl-7-oxo-2-[4-(2-pyrimidinyl)-1-piperazinyl]pyrido[2,3-d]pyrimidin-8(7H)-yl)benzamide] |
| 1.25 | Cc1nc(N2CCN(c3ncccn3)CC2)nc2c1ccc(=O)n2-c1ccc(C(=O)NCc2cccc3ccccc23)cc1 [Compound 32, 4-(4-methyl-7-oxo-2-[4-(2-pyrimidinyl)-1-piperazinyl]pyrido[2,3-d]pyrimidin-8(7H)-yl)-N-(1-naphthylmethyl)benzamide] |
| 1.1 | Cc1nc(N2CCc3ccccc3C2)nc2c1ccc(=O)n2-c1ccc(C(=O)NC2CC2)cc1 [Compound 33, N-cyclopropyl-4-(2-(3,4-dihydro-2(1H)-isoquinolinyl)-4-methyl-7-oxopyrido[2,3-d]pyrimidin-8(7H)-yl)benzamide] |
| 8.2 | COc1ccc(NC(=O)c2ccc(-n3c(=O)ccc4c(C)nc(N5CCc6ccccc6C5)nc43)cc2)cc1OC [Compound 34, 4-(2-(3,4-dihydro-2(1H)-isoquinolinyl)-4-methyl-7-oxopyrido[2,3-d]pyrimidin-8(7H)-yl)-N-(3,4-dimethoxyphenyl)benzamide] |
| 1.9 | Cc1nc(N2CCc3ccccc3C2)nc2c1ccc(=O)n2-c1ccc(C(=O)N(C)C)cc1 [Compound 35, 4-(2-(3,4-dihydro-2(1H)-isoquinolinyl)-4-methyl-7-oxopyrido[2,3-d]pyrimidin-8(7H)-yl)-N,N-dimethylbenzamide] |
| 2 | COc1ccc(CNC(=O)c2ccc(-n3c(=O)ccc4c(C)nc(N5CCc6ccccc6C5)nc43)cc2)cc1OC [Compound 36, 4-(2-(3,4-dihydro-2(1H)-isoquinolinyl)-4-methyl-7-oxopyrido[2,3-d]pyrimidin-8(7H)-yl)-N-(3,4-dimethoxybenzyl)benzamide] |
| 2.9 | CCOC(=O)c1ccc(NC(=O)c2ccc(-n3c(=O)ccc4c(C)nc(N5CCc6ccccc6C5)nc43)cc2)cc1 [Compound 37, Ethyl 4-{[4-(2-(3,4-dihydro-2(1H)-isoquinolinyl)-4-methyl-7-oxopyrido[2,3-d]pyrimidin-8(7H)-yl)benzoyl]amino}benzoate] |
| 1.6 | Cc1nc(N2CCc3ccccc3C2)nc2c1ccc(=O)n2-c1ccc(C(=O)Nc2cccc(C#N)c2)cc1 [Compound 38, N-(3-cyanophenyl)-4-(2-(3,4-dihydro-2(1H)-isoquinolinyl)-4-methyl-7-oxopyrido[2,3-d]pyrimidin-8(7H)-yl)benzamide] |
| 1.4 | Cc1nc(N2CCc3ccccc3C2)nc2c1ccc(=O)n2-c1ccc(C(=O)NC2CCCCC2)cc1 [Compound 39, N-cyclohexyl-4-(2-(3,4-dihydro-2(1H)-isoquinolinyl)-4-methyl-7-oxopyrido[2,3-d]pyrimidin-8(7H)-yl)benzamide] |
| 3.1 | COC(=O)c1ccc(Nc2nc(C)c3ccc(=O)n(-c4ccc(C(=O)OC)cc4)c3n2)cc1 [Compound 41, methyl 4-({8-[4-(methoxycarbonyl)phenyl]-4-methyl-7-oxo-7,8-dihydropyrido[2,3-d]pyrimidin-2-yl}amino)benzoate] |
| 4.6 | CCOC(=O)c1ccc(Nc2nc(C)c3ccc(=O)n(-c4ccc(C(=O)OCC)cc4)c3n2)cc1 [Compound 42, Ethyl 4-({8-[4-(ethoxycarbonyl)phenyl]-4-methyl-7-oxo-7,8-dihydropyrido[2,3-d]pyrimidin-2-yl}amino)benzoate] |
| 6.1 | CCCCCCCCNC(=O)c1ccc(-n2c(=O)ccc3c(C)nc(NCC(C)C)nc32)cc1 [Compound 43, 4-(2-Isobutylamino-4-methyl-7-oxo-7H-pyrido[2,3-d]pyrimidin-8-yl)-N-octyl-benzamide] |
| 19.1 | Cc1nc(NCC(C)C)nc2c1ccc(=O)n2-c1ccc(C(=O)Nc2ccccc2)cc1 [Compound 44, 4-(2-Isobutylamino-4-methyl-7-oxo-7H-pyrido[2,3-d]pyrimidin-8-yl)-N-phenyl-benzamide] |
| 7.3 | Cc1nc(N2CCc3ccccc3C2)nc2c1ccc(=O)n2-c1ccc(C(=O)NCC[N+]2([O-])CCOCC2)cc1 [Compound 45, 4-[2-(3,4-Dihydro-1H-isoquinolin-2-yl)-4-methyl-7-oxo-7H-pyrido[2,3-d]pyrimidin-8-yl]-N-[2-(4-oxy-morpholin-4-yl)-ethyl]-benzamide] |
| 2.6 | Cc1nc(N2CCc3ccccc3C2)nc2c1ccc(=O)n2-c1ccc(C(=O)NCCC[N+](C)(C)[O-])cc1 [Compound 46, 4-(2-(3,4-dihydro-2(1H)-isoquinolinyl)-4-methyl-7-oxopyrido[2,3-d]pyrimidin-8(7H)-yl)-N-[3-(dimethylamino-N-oxido)propyl]benzamide] |
